Where “and” joins values, the source holds several entries; their conditions need not be identical. Equal values may be shown once.
Legend:
Conditions in all cases: incubation time: 72 h
CAL-148 = assay: drug sensitivity score (DSS), CellTiter-Glo (DSS (AUC-based score)); higher = stronger drug effect (viability inhibition or cytotoxicity); extreme values may be limits of the assay
Procedure, shortened: (§1)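 Using 20 µl of cell suspension per well, breast cancer cell lines were seeded into 384-well plates pre-loaded with compound at 5 concentrations in 10-fold steps across a compound-specific 10,000-fold range. Incubation lasted 72 h, after which CellTox Green fluorescence at 485/520 nm and then CellTiter-Glo luminescence, following 10 min at room temperature, were recorded. Each plate was normalised to 0.1 % DMSO and a positive kill control before the drug sensitivity score was derived from the area under the fitted dose-response curve.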

MFM-223 = assay: as above
Procedure, shortened: as §1

CAL-120 [1] = assay: as above
Procedure, shortened: as §1

MDA-MB-468 = assay: as above
Procedure, shortened: as §1

BT-474 = assay: as above
Procedure, shortened: as §1

CAL-85-1 [2] = assay: as above
Procedure, shortened: as §1

MDA-MB-231 = assay: as above
Procedure, shortened: as §1

Hs578T [3] = assay: as above
Procedure, shortened: as §1

HCC1143 = assay: as above
Procedure, shortened: as §1

BT-549 [4] = assay: as above
Procedure, shortened: as §1

MCF-10A = assay: as above
Procedure, shortened: as §1

HDQ-P1 [5] = assay: as above
Procedure, shortened: as §1

HCC1937 = assay: as above
Procedure, shortened: as §1

DU-4475 = assay: as above
Procedure, shortened: as §1

HCC1599 = assay: as above
Procedure, shortened: as §1

MDA-MB-453 = assay: as above
Procedure, shortened: as §1

SK-BR-3 = assay: as above
Procedure, shortened: as §1

MDA-MB-436 [6] = assay: as above
Procedure, shortened: as §1

CAL-51 = assay: as above
Procedure, shortened: as §1

CAL-120 [7] = assay: normalised viability (% of control), CellTiter-Blue; higher = more viable cells (about 100 = DMSO control)
Procedure, shortened: (§2)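 Plates were quality-checked by Z'-factor and normalised to vehicle (100) and a positive kill control (0). The underlying assay incubated breast cancer cell lines for 72 h on 384-well plates with compound, then added 2.5 µl CellTiter-Blue for 2 h at 37 °C and read at 560/590 nm. The value is normalised viability at a single listed concentration of the series.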

CAL-85-1 [8] = assay: as above
Procedure, shortened: as §2

Hs578T [9] = assay: as above
Procedure, shortened: as §2

BT-549 [10] = assay: as above
Procedure, shortened: as §2

HDQ-P1 [11] = assay: as above
Procedure, shortened: as §2

MDA-MB-436 [12] = assay: as above
Procedure, shortened: as §2

| SMILES | drug sensitivity score (CAL-148) | drug sensitivity score (MFM-223) | drug sensitivity score (CAL-120 [1]) | drug sensitivity score (MDA-MB-468) | drug sensitivity score (BT-474) | drug sensitivity score (CAL-85-1 [2]) | drug sensitivity score (MDA-MB-231) | drug sensitivity score (Hs578T [3]) | drug sensitivity score (HCC1143) | drug sensitivity score (BT-549 [4]) | drug sensitivity score (MCF-10A) | drug sensitivity score (HDQ-P1 [5]) | drug sensitivity score (HCC1937) | drug sensitivity score (DU-4475) | drug sensitivity score (HCC1599) | drug sensitivity score (MDA-MB-453) | drug sensitivity score (SK-BR-3) | drug sensitivity score (MDA-MB-436 [6]) | drug sensitivity score (CAL-51) | normalised viability (CAL-120 [7]; 10 nM) | normalised viability (CAL-120 [7]; 1000 nM) | normalised viability (CAL-120 [7]; 10000 nM) | normalised viability (CAL-85-1 [8]; 3 nM) | normalised viability (CAL-85-1 [8]; 30 nM) | normalised viability (CAL-85-1 [8]; 100 nM) | normalised viability (Hs578T [9]; 10 nM) | normalised viability (Hs578T [9]; 1000 nM) | normalised viability (Hs578T [9]; 10000 nM) | normalised viability (BT-549 [10]; 10 nM) | normalised viability (BT-549 [10]; 1000 nM) | normalised viability (BT-549 [10]; 10000 nM) | normalised viability (HDQ-P1 [11]; 3 nM) | normalised viability (HDQ-P1 [11]; 30 nM) | normalised viability (HDQ-P1 [11]; 100 nM) | normalised viability (MDA-MB-436 [12]; 10 nM) | normalised viability (MDA-MB-436 [12]; 1000 nM) | normalised viability (MDA-MB-436 [12]; 10000 nM) |
| --- | --- | --- | --- | --- | --- | --- | --- | --- | --- | --- | --- | --- | --- | --- | --- | --- | --- | --- | --- | --- | --- | --- | --- | --- | --- | --- | --- | --- | --- | --- | --- | --- | --- | --- | --- | --- | --- |
| CC(C)(C)NC(=O)[C@H]1CC[C@H]2[C@@H]3CC[C@H]4NC(=O)C=C[C@]4(C)[C@H]3CC[C@]12C [Finasteride] | 0 | 0 | 0 | 0 | 0 | 0 | 0 | 0 | 0 | 0 | 0 | 0 | 0 | 0 | 0 | 0 | 0 | 0 | 0 | 108% | 108% | 116% | 100% | 91.7% | 100% | 64.2% | 108% | 117% | 89.8% | 99% | 98.5% | 121% | 116% | 130% | 91% | 97.8% | 96.3% |
| Cn1cc(C2=C(c3cn(C4CCN(Cc5ccccn5)CC4)c4ccccc34)C(=O)NC2=O)c2ccccc21 [Enzastaurin] | 0 | 0 | 0 | 0 | 0 | 0 | 0 | 0 | 0 | 0 | 0 | 0 | 0 | 0 | 0 | 0 | 0 | 0 | 0 | 89.6% | 95% | 65.9% | 85.1% | 93.4% | 85.4% | 91.2% | 68% | 32.6% | 92.4% | 68.9% | 48.1% | 113% | 107% | 89.3% | 127% | 56.1% | 57.8% |
| Cc1cn(-c2cc(NC(=O)c3ccc(C)c(Nc4nccc(-c5cccnc5)n4)c3)cc(C(F)(F)F)c2)cn1 [Nilotinib] | 0 | 0 | 0 | 0 | 0 | 0 | 0 | 0 | 0 | 1.04 | 0 | 0 | 0 | 0 | 0 | 0 | 0 | 0 | 6.22 | 78% and 85.4% | 82.5% and 88% | 90.2% and 92.4% | 87% and 87.5% | 81.8% and 80.2% | 85.7% and 90.7% | 97.3% and 112% | 89% and 84.7% | 106% and 91% | 97.3% and 88.6% | 71.5% and 73.6% | 43.4% and 40.7% | 92.5% and 86.2% | 87.3% and 81.5% | 95.3% and 83.1% | 98.2% and 88.3% | 75.7% and 76.8% | 92.5% and 75.2% |
| CNC(=O)c1ccccc1Sc1ccc2c(/C=C/c3ccccn3)n[nH]c2c1 [Axitinib] | 0 | 8.4 | 1.6 | 4.94 | 0 | 0 | 0 | 0 | 0 | 1.06 | 0 | 1.23 | 0 | 0 | 2.21 | 0 | 0 | 1.91 | 9.31 | 91.2% | 94.7% | 55.2% | 93% | 84% | 104% | 92.1% | 93% | 54.2% | 96.6% | 92.6% | 42.5% | 101% | 106% | 92.1% | 103% | 21.7% | 46% |
